Experimental data from ChEMBL document CHEMBL3734748, “Design, synthesis, and biological activity of N-alkylated analogue of NCL1, a selective inhibitor of lysine-specific demethylase 1” (Medchemcomm, 2015).
Activity calls are given as the source filed them. The calls are words filed in the database; no cut-off is given here.

Tests used:
HeLa = assay: Antiproliferative activity against human HeLa cells assessed as growth inhibition after 48 h by MTT assay; assay type: functional
SH-SY5Y = assay: Antiproliferative activity against human SH-SY5Y cells assessed as growth inhibition after 48 h by MTT assay; assay type: functional
[1] = molecular target: T1, Lysine-specific histone demethylase 1A (Homo sapiens, UniProt O60341); assay: Inhibition of full length human fusion His6 tagged LSD1 expressed in Escherichia coli BL21(DE3) cells using H3K4me2 peptide substrate preincubated for 5 mins by peroxidase-coupled method
[2] = molecular target: T2, Amine oxidase [flavin-containing] B (Homo sapiens, UniProt P27338); assay: Inhibition of MAOB (unknown origin)
T2 sequence (P27338 whole entry): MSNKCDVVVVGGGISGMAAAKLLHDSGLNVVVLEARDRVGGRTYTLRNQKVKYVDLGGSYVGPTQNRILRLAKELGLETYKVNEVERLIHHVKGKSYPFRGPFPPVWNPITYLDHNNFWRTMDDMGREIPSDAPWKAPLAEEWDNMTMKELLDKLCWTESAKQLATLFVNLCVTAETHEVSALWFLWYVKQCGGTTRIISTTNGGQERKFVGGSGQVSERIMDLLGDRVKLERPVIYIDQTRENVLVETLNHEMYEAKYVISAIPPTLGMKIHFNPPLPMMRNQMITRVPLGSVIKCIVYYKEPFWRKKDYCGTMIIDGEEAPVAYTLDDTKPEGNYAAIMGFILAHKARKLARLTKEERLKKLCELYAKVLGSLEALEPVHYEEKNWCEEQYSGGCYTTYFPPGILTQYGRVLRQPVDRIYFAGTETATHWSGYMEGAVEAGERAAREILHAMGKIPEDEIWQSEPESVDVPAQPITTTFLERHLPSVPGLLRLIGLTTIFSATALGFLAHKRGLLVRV

[3] = molecular target: T1, Lysine-specific histone demethylase 1A; assay: Time-dependent inhibition of full length human fusion His6 tagged LSD1 expressed in Escherichia coli BL21(DE3) cells using H3K4me2 peptide substrate preincubated for 5 mins by peroxidase-coupled method
[4] = molecular target: T1, Lysine-specific histone demethylase 1A; assay: Time-dependent inhibition of full length human fusion His6 tagged LSD1 expressed in Escherichia coli BL21(DE3) cells assessed as enzyme inactivation using H3K4me2 peptide substrate preincubated for 5 mins by peroxidase-coupled method
[5] = molecular target: T1, Lysine-specific histone demethylase 1A; assay: Inhibition of LSD1 in human SH-SY5Y cells assessed as induction of H3K4me2 accumulation at 30 uM after 24 hrs by Western blot method; assay type: cell-based
[6] = molecular target: T1, Lysine-specific histone demethylase 1A; assay: Inhibition of LSD1 in human SH-SY5Y cells assessed as induction of H3K4me2 accumulation at 10 uM after 24 hrs by Western blot method; assay type: cell-based
[7] = molecular target: T1, Lysine-specific histone demethylase 1A; assay: Potency index, ratio of IC50 for NCL1 to IC50 for test compound against full length human fusion His6 tagged LSD1 expressed in Escherichia coli BL21(DE3) cells
[8] = molecular target: T3, Amine oxidase [flavin-containing] A (Homo sapiens, UniProt P21397); assay: Inhibition of MAOA (unknown origin)
T3 sequence (P21397 whole entry): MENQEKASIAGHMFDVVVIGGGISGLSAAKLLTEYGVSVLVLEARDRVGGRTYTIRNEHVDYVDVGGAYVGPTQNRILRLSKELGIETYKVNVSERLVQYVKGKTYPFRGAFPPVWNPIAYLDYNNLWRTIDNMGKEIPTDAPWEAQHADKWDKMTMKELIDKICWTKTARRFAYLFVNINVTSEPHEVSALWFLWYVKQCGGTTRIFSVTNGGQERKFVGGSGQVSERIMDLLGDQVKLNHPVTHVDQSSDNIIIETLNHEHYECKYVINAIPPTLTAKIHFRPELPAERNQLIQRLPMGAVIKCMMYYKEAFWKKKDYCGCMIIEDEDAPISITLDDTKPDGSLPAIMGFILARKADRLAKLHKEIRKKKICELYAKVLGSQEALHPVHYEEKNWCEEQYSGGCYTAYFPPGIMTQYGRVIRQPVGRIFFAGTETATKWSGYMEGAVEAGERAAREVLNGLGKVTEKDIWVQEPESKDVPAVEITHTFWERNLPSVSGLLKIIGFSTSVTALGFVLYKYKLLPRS

[9] = molecular target: T1, Lysine-specific histone demethylase 1A; assay: Inhibition of full length human fusion His6 tagged LSD1 expressed in Escherichia coli BL21(DE3) cells assessed as FAD-NCL1 adduct formation at 100 uM incubated for 22 hrs by MALDI-TOF mass spectrometry

GI50 (HeLa) | GI50 (SH-SY5Y) | IC50 [1] | IC50 [2] | Ki [3] | inhibition ([3]; TDE = time-dependent effect) | Kinact [4] | inhibition [5] | inhibition [6] | Ratio IC50 [7] | IC50 [8] | inhibition [9] | SMILES
> 240 µM | > 240 µM | 2.4 µM | – | – | – | – | – | – | – | – | – | CN1CCN(C(=O)CNC2CC2c2cccc(O)c2)CC1 (configuration not stated)
109 µM | 42 µM | 0.38 µM | > 100 µM | 2.4 µM | tde | 0.0035 s⁻¹ | Active | Active | 6 | > 100 µM | Active | CN1CCN(C(=O)CNC2CC2c2cccc(OCC[C@H](NC(=O)c3ccccc3)C(=O)NCc3ccccc3)c2)CC1 (some centres not stated)
13 µM | 27 µM | – | – | – | – | – | – | – | – | – | – | NC1CC1c1cccc(OCC[C@H](NC(=O)c2ccccc2)C(=O)NCc2ccccc2)c1 (some centres not stated)
